The subject of this series is cabbage moth (Plutella xylostella). The experiment in a line: Cabbage moth mortality test on sprayed cabbage seedling (Test method 23). The series is classed as in vivo. The settings on record: 500 ppm, 20 mL/seedling sprayed on cabbage; 5 second instar larvae; after 5 days. As for the experimental part: The present compound is made to a formulation according to a similar method to that described in the Formulation Example 6, and thereto is added water containing 0.03 v/v % of a spreader to prepare a diluted solution containing a prescribed concentration of the test compound.
Cabbage (Brassicae oleracea) seedling (on the developmental stage of the second to third true leaf) is planted in a cup, and the diluted solutions are sprayed into the seedling at a ratio of 20 mL/seedling. Thereafter, the stem and leaf of the seedling is cut out and is then installed into the container that is covered with the filter paper. Five (5) cabbage moth (Plutella xylostella) at the second instar larval stages are released into the cup. After 5 days, the surviving insects are counted, and the mortality of insects is calculated by the following equation. Mortality (%)={1−the number of the surviving insects/5}×100

As to `COC=C(Cc1cc(OCc2ccccc2)ccc1C)C(=O)OC` [compound 28], the mortality is 100%.

A word on the mortality: it is the share of the test organisms that died. A higher mortality goes with a strong lethal effect.

The values above are taken from US12082581B2, “Acrylate derivative, use and production intermediate compound of the same” (SUMITOMO CHEMICAL COMPANY, LIMITED, priority 2019, dated 2024).
